Among the test systems are DU-145 prostate; HCT-15 colon; HOP-62 NSCLC; HS 578T breast; KM12 colon; MALME-3M melanoma; MOLT-4 leukemia; OVCAR-3 ovarian; SF-295 CNS; SF-539 CNS; SK-MEL-2 melanoma; SNB-75 CNS; UACC-62 melanoma; LOX IMVI melanoma.
What all share (test): growth of human tumour cells (NCI), 48 h

The structures appear in SMILES notation.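 96-well plates; 48 h exposure; 5 concentrations. Endpoints by linear interpolation between flanking doses. Not reached: highest tested concentration assigned. TGI is the concentration that stops growth completely.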

As for `COc1cc(S(=O)(=O)Nc2ccc(-c3csc(N4C(=O)C(Cl)C4c4ccccc4)n3)cc2)ccc1Cl` (stereo not drawn), the TGI in the assay with DU-145 prostate is 38.7 µM; in the assay on HCT-15 colon, over 100 µM; in the assay on HOP-62 NSCLC it was over 100 µM; in the assay with HS 578T breast, over 100 µM; with KM12 colon, over 100 µM; in the assay on MALME-3M melanoma it was 49 µM. Besides, the TGI in the assay on MOLT-4 leukemia was over 100 µM; in the assay with OVCAR-3 ovarian, over 100 µM; in the assay with SF-295 CNS it was over 100 µM; in the assay with SF-539 CNS it was over 100 µM; with SK-MEL-2 melanoma it was over 100 µM; with SNB-75 CNS it was 49.1 µM. The same compound registered a TGI in the assay on UACC-62 melanoma of 51.2 µM.
Consider `Fc1cccc(Cl)c1C1SCc2nc3cc4ccccc4cc3n21` (stereo not drawn), for which the TGI in the assay on DU-145 prostate, with HCT-15 colon, in the assay with HOP-62 NSCLC, in the assay with HS 578T breast, in the assay with KM12 colon and in the assay with LOX IMVI melanoma was over 100 µM throughout. Also, the TGI in the assay with MALME-3M melanoma, in the assay with MOLT-4 leukemia, in the assay with OVCAR-3 ovarian, in the assay with SF-295 CNS, in the assay with SF-539 CNS and in the assay with SK-MEL-2 melanoma was over 100 µM in each case. The compound further gave a TGI with UACC-62 melanoma of over 100 µM.
Regarding `O/N=C(\CC(O)(C(F)(F)F)C(F)(F)F)c1cccc(Cl)c1`, the TGI in the assay on DU-145 prostate was over 100 µM; with HCT-15 colon, over 100 µM; with HS 578T breast, 53 µM; with KM12 colon, over 100 µM; in the assay on LOX IMVI melanoma, 62.5 µM; in the assay on MALME-3M melanoma, over 100 µM. The TGI in the assay with MOLT-4 leukemia is 38.8 µM; with OVCAR-3 ovarian, 49.4 µM; in the assay on SF-295 CNS, over 100 µM; in the assay with SF-539 CNS, 85.9 µM; in the assay on SK-MEL-2 melanoma, 63.5 µM; with SNB-75 CNS, 57.6 µM. Further, in the assay on UACC-62 melanoma, the TGI was over 100 µM.
In the case of `N#Cc1c(O)cc(=O)n2c1[nH]c1ccccc12`, the TGI in the assay on DU-145 prostate, with HCT-15 colon, in the assay on HOP-62 NSCLC, in the assay on HS 578T breast, with KM12 colon and with MALME-3M melanoma was over 100 µM each time. In addition, the TGI in the assay on MOLT-4 leukemia, in the assay with OVCAR-3 ovarian, in the assay with SF-295 CNS, in the assay on SF-539 CNS, with SK-MEL-2 melanoma and in the assay on SNB-75 CNS was over 100 µM each time. The TGI with UACC-62 melanoma is over 100 µM.
Consider `COC(=O)[C@@H](Cc1ccccc1)N1O[C@]12CCCC[C@@H]2NC(=O)OC(C)(C)C` (stereo partly drawn), for which the TGI in the assay on DU-145 prostate was 79 µM; with HCT-15 colon it was 33.5 µM; with HOP-62 NSCLC, 38.2 µM; in the assay on HS 578T breast, 55.8 µM; in the assay on KM12 colon, over 100 µM; with MALME-3M melanoma, 56 µM. For the same compound, the TGI in the assay on MOLT-4 leukemia was over 100 µM; in the assay with OVCAR-3 ovarian, 57.1 µM; in the assay on SF-295 CNS, over 100 µM; in the assay with SF-539 CNS, 33.3 µM; in the assay on SK-MEL-2 melanoma it was 49 µM; with SNB-75 CNS, 77.3 µM. This compound had a TGI in the assay on UACC-62 melanoma of 48.7 µM.
`NC(=O)/C=c1/c2ccccc2n2nc3ccccc3c12`: the TGI with DU-145 prostate is over 100 µM; with HCT-15 colon, 40.8 µM; with HOP-62 NSCLC, 77.2 µM; in the assay on HS 578T breast, 87.6 µM; in the assay with KM12 colon, 56.5 µM; in the assay on LOX IMVI melanoma it was 19.7 µM. Moreover, the TGI is 53.4 µM with MALME-3M melanoma; 7.69 µM in the assay on MOLT-4 leukemia; 49.1 µM in the assay with OVCAR-3 ovarian; over 100 µM with SF-295 CNS; 31.9 µM in the assay on SF-539 CNS; 57.1 µM in the assay on SK-MEL-2 melanoma. Further, the TGI in the assay with UACC-62 melanoma was found to be 37 µM.
Turning to `C=CC(Br)(CBr)CCC(Br)C(C)(C)Cl` (stereo not drawn), the TGI in the assay on DU-145 prostate is 9.92 µM; in the assay with HCT-15 colon it was 6.53 µM; in the assay on HOP-62 NSCLC, 7.87 µM; with HS 578T breast, 14.7 µM; in the assay with KM12 colon, 3.92 µM; in the assay with MALME-3M melanoma, 19.2 µM. Besides, the TGI is 4.05 µM in the assay with MOLT-4 leukemia; 5.25 µM in the assay on OVCAR-3 ovarian; 3.6 µM in the assay on SF-295 CNS; 3.78 µM in the assay on SF-539 CNS; 29.5 µM with SK-MEL-2 melanoma; 8.72 µM in the assay with SNB-75 CNS. The same compound yielded a TGI in the assay with UACC-62 melanoma of 17.3 µM.
Take `COc1ccc(N=Nc2c(C)c(C#N)c(=S)n(C3OC(CO)C(O)C(O)C3O)c2C)cc1` (stereo not drawn): the TGI in the assay with DU-145 prostate, in the assay with HCT-15 colon, in the assay on HOP-62 NSCLC, in the assay on HS 578T breast, in the assay on KM12 colon and in the assay with LOX IMVI melanoma was over 100 µM each time. In addition, the TGI is 84.6 µM with MOLT-4 leukemia; over 100 µM with OVCAR-3 ovarian; over 100 µM in the assay with SF-295 CNS; over 100 µM in the assay with SF-539 CNS; over 100 µM in the assay on SK-MEL-2 melanoma; over 100 µM with SNB-75 CNS. Also, the TGI in the assay with UACC-62 melanoma was over 100 µM.
As for `Clc1ccc(-c2ccc(-c3nnc(COc4ccc(OCc5nnc(-c6ccc(-c7ccc(Cl)cc7Cl)o6)o5)c(Cl)c4)o3)o2)c(Cl)c1`, the TGI in the assay with DU-145 prostate, in the assay on HCT-15 colon, in the assay on HOP-62 NSCLC, in the assay with HS 578T breast, with KM12 colon and in the assay with LOX IMVI melanoma was over 100 µM throughout. Further, the TGI with MOLT-4 leukemia is 64.2 µM; in the assay with OVCAR-3 ovarian, over 100 µM; in the assay on SF-295 CNS, over 100 µM; in the assay with SK-MEL-2 melanoma, over 100 µM; in the assay on UACC-62 melanoma it was over 100 µM.
Take `O=C(Cc1nc2ncccc2[nH]c1=O)c1c[nH]c2ccccc12`: the TGI in the assay on DU-145 prostate was found to be 32.7 µM; in the assay on HCT-15 colon it was 95.8 µM; with HOP-62 NSCLC it was 36.9 µM; with HS 578T breast it was 40.8 µM; with KM12 colon, 34.5 µM; with LOX IMVI melanoma it was 44 µM. Besides, the TGI in the assay with MALME-3M melanoma came out at 32.7 µM; with MOLT-4 leukemia it was 94.8 µM; in the assay on OVCAR-3 ovarian, 32.5 µM; in the assay on SF-295 CNS, 31.9 µM; with SF-539 CNS it was 31.5 µM; with SK-MEL-2 melanoma, 30.8 µM. Further, in the assay on UACC-62 melanoma, the TGI amounted to 31.2 µM.
Take `Nc1c(N2CCOCC2)c(=O)nc2[nH]/c(=C\c3ccccc3)c(=O)n12`: the TGI in the assay on DU-145 prostate, in the assay on HCT-15 colon, in the assay with HS 578T breast, in the assay with KM12 colon, with LOX IMVI melanoma and with MALME-3M melanoma was over 100 µM in each case. For the same compound, the TGI in the assay on MOLT-4 leukemia, with SF-295 CNS, in the assay with SF-539 CNS and with SNB-75 CNS was over 100 µM throughout.
